{
  "source": "paper PMC5031696",
  "about": "“Synthesis, Biodistribution and In vitro Evaluation of Brain Permeable High Affinity Type 2 Cannabinoid Receptor Agonists [^11C]MA2 and [^18F]MA3” (Frontiers in Neuroscience, 2016)",
  "origin": "cited, not measured here",
  "test_system": "CB2",
  "design": "method as in Evens et al., 2011",
  "details": "ref Evens et al., 2011; cited from earlier work",
  "data": [
    {"smiles": "Cc1c(CCN2CCOCC2)c2cc(OCC[18F])ccc2n1C(=O)c1cccc(Cl)c1Cl", "note": "[[^18F]FE-GW405833]", "values": [
      {"measurement": "binding affinity for CB2", "value": 27, "unit": "nM"}
    ]}
  ]
}
